# In patent publication US6362181B1, “Isoquinolones” (Warner-Lambert Company, priority 1996, dated 2002):
# Like-named read-outs stand apart in the source and are kept apart here.
# What was measured:
# S. pyogenes C203 = assay: Antibacterial assay, standard microtitration, MIC; type: cell-based; conditions: Streptococcus pyogenes, Gram positive, read-out: Minimum Inhibitory Concentrations, S. pyogenes C203
# In short: (§1)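 Antibacterial activity is measured in microtitre plates against both Gram classes of bacteria, with MIC taken as the endpoint.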
# E. coli B90 = assay: Antibacterial assay, standard microtitration, MIC; type: cell-based; conditions: Escherichia coli, Gram negative, read-out: Minimum Inhibitory Concentrations, E. coli B90
# In short: as §1
# B. subtilis RB1 = assay: Antibacterial assay, standard microtitration, MIC; type: cell-based; conditions: Bacillus subtilis, Gram positive, read-out: Minimum Inhibitory Concentrations, B. subtilis RB1
# In short: as §1
# E. coli MC4100 = assay: Antibacterial assay, standard microtitration, MIC; type: cell-based; conditions: Escherichia coli, Gram negative, read-out: Minimum Inhibitory Concentrations, E. coli MC4100
# In short: as §1
# S. aureus 29213 = assay: Antibacterial assay, standard microtitration, MIC; type: cell-based; conditions: Staphylococcus aureus, Gram positive, read-out: Minimum Inhibitory Concentrations, S. aureus 29213
# In short: as §1
# E. coli topoisomerase IV = molecular target: T1, E. coli topoisomerase IV (Escherichia coli, UniProt P0AFI2+P20083); assay: Topoisomerase IV k-DNA decatenation assay; type: biochemical
# T1 construct: made in house; host or cells: E. coli overexpressing strains
# Procedure: Topoisomerase IV was purified from E. coli overexpressing strains and the compounds were assayed according to literature conditions (Journal of Biological Chemistry, 1993;268(32):24481). The k-DNA decatenation assay was used. Briefly, reactions were performed in buffer R (40 mM Tris-HCl (pH 7.5), 6 mM MgCl2, 10 mM DTT, 100 mM potassium glutamate, 40 μM ATP, 50 μg/mL bovine serum albumin, 10 mM NaCl). 0.2 μg of kinetoplast DNA (k-DNA; TopoGen, Columbus, Ohio) was incubated with 5 ng of E. coli topoisomerase IV in the presence or absence of test compounds for 10 minutes at 37° C. Subsequently, one-tenth volume of 10×gel loading buffer (0.3% bromophenol blue, 16% Ficoll, 10 mM Na2HPO4) was added, and samples were loaded onto horizontal 0.8% agarose gels prepared with TBE buffer and containing 0.05 μg/mL of ethidium bromide. Electrophoresis was at 70 V for 2 to 4 hours. Gels were then examined by exposure to UV light. The concentration of drug inhibiting 50% of the decantenating activity of Topoisomerase IV is given as an IC50 and recorded in Table 2.
# E. coli gyrase = molecular target: T2, E. coli gyrase (Escherichia coli, UniProt P0AES4+P0AES6); assay: DNA gyrase supercoiling inhibition assay; type: biochemical
# T2 construct: purchased Lucent, Ltd., Leicester, UK
# Procedure: The effects of test agents on the activity of DNA gyrase was determined by the supercoiling inhibition assay, following reaction conditions recommended by the enzyme supplier (Lucent, Ltd., Leicester, UK), as follows. Reactions were performed in buffer G (35 mM Tris-HCL (pH 7.5), 24 mM KCl, 4 mM MgCl2, 2 mM DTT, 1.8 mM spermidine, 1 mM ATP, 0.1 mg/mL bovine serum albumin). 0.25 μg of relaxed plasmid pBR322 (Lucent, Ltd., Leicester, UK) was reacted with 1 U E. coli gyrase (Lucent, Ltd., Leicester, UK), in the absence or presence of drugs, for 30 minutes at 37° C. Reactions were stopped by the addition of SDS and proteinase K to respective final concentrations of 1% and 0.5 mg/mL. After an additional 30 minutes at 37° C., one-tenth volume of 10×loading buffer (0.3% bromophenol blue, 16% Ficoll, 10 mM Na2HPO4) was added, and reactions were loaded onto agarose gels and electrophoresed as described above for intercalation assays. The concentration of drug inhibiting 50% of the supercoiling activity of DNA gyrase is given as an IC50 and recorded in Table 2.
# relaxed plasmid pBR322 = assay: DNA intercalation/binding assay; conditions: pBR322 with calf thymus topoisomerase I, 30 minutes at 37° C.; read-out: Drug Concentration causing 50% Intercalation of DNA
# Procedure: Compounds of the present invention were evaluated for their ability to intercalate/bind to DNA, using the procedure described in Nucleic Acids Research, 1987;15(15):6713. Specifically, 0.2 μg of relaxed plasmid pBR322 (Lucent, Ltd., Leicester, UK) was treated with 2 U of calf thymus topoisomerase I (Gibco/BRL, Gaithersburg, Md.) in buffer I (10 mM Tris-HCl (Ph 7.5), 50 mM KCl, 5 mM MgCl2, 1 mM Na2EDTA, 15 μg/mL bovine serum albumin) in the presence or absence of test compounds. Reaction were incubated for 30 minutes at 37° C.; volumes were typically 30 μL. Reactions were terminated by the addition of sodium dodecylsulfate (SDS) to 1% and proteinase K to 0.5 mg/mL final concentrations. After an additional 30 minutes at 37° C., one-tenth volume of 10×concentrated loading buffer (0.3% bromophenol blue, 16% Ficoll, 10 mM Na2HPO4) was added, and samples were loaded onto horizontal 0.8% agarose gels prepared in TAE buffer. Electrophoresis was at 22 V for 14 hours. Gels were then stained by soaking for 1.5 hours in deionized water containing 0.2 μg/mL of ethidium bromide, followed by destaining in deionized water for an additional 1.5 hours. Gels were examined and photographed following exposure to UV light. The concentration of the drug which induced a 50% change in the DNA by intercalation is represented by an intercalation IC50 and is recorded in Table 4.
# [1] = Mammalian cell cytotoxicity, colony formation; type: cell-based; conditions: Chinese hamster, drug for 3 hours at 37° C., colony formation after 5 days, read-out: 50% Cytotoxic Conc. in CHO cells
# Procedure: Mammalian Cell Cytotoxicity
# The cells were grown overnight and treated with drug for 3 hours at 37° C., at which time the compound containing media was replaced with fresh media. The cells were then incubated for 5 days and examined for colony formation.
# E. coli To1C = assay: Antibacterial assay, standard microtitration, MIC; type: cell-based; conditions: Escherichia coli, TO1C, read-out: Minimum Inhibitory Concentrations, E. coli To1C
# In short: as §1
# [2] = k-DNA decatenation, 10 minutes at 37° C., read-out: Top IV IC50
# [3] = supercoiling of relaxed pBR322, 30 minutes at 37° C., read-out: DNA Gyrase IC50
# T1 sequence (P0AFI2 whole entry): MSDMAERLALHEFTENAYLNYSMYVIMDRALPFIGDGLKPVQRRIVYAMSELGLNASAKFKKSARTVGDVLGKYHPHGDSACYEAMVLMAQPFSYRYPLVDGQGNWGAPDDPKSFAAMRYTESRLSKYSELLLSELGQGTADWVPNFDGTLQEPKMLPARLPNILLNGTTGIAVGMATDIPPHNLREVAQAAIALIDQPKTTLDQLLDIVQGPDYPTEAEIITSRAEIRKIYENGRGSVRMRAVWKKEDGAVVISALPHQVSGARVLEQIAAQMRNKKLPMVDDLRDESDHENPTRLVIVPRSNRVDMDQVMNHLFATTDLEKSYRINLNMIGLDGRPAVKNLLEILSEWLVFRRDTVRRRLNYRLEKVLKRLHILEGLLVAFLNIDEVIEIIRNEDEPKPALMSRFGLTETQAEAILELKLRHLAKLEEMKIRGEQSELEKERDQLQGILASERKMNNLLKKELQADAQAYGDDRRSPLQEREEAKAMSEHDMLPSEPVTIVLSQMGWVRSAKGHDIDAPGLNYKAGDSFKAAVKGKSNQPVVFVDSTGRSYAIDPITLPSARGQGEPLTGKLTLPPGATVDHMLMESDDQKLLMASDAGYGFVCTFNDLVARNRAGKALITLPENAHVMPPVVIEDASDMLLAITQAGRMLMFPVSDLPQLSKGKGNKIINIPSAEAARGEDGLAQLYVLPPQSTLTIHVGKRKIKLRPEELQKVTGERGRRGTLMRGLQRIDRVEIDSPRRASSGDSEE
# T1 sequence (P20083 whole entry): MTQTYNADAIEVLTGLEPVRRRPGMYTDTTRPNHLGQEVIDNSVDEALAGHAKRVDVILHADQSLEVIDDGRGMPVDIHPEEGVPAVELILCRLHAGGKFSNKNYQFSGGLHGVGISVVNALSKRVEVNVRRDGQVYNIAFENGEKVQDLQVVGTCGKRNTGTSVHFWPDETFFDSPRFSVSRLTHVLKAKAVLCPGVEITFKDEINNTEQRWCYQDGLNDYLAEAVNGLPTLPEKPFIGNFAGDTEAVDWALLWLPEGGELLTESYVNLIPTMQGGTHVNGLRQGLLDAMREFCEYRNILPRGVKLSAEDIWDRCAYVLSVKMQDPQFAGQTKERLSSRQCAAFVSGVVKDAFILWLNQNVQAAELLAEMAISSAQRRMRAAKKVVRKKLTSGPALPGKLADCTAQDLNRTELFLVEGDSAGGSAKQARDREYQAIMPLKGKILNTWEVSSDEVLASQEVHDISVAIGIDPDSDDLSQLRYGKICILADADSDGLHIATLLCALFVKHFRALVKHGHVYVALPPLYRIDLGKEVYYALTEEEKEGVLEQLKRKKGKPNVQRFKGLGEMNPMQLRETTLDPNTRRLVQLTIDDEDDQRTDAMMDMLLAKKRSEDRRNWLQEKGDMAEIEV
# T2 sequence (P0AES4 whole entry, one chain of several): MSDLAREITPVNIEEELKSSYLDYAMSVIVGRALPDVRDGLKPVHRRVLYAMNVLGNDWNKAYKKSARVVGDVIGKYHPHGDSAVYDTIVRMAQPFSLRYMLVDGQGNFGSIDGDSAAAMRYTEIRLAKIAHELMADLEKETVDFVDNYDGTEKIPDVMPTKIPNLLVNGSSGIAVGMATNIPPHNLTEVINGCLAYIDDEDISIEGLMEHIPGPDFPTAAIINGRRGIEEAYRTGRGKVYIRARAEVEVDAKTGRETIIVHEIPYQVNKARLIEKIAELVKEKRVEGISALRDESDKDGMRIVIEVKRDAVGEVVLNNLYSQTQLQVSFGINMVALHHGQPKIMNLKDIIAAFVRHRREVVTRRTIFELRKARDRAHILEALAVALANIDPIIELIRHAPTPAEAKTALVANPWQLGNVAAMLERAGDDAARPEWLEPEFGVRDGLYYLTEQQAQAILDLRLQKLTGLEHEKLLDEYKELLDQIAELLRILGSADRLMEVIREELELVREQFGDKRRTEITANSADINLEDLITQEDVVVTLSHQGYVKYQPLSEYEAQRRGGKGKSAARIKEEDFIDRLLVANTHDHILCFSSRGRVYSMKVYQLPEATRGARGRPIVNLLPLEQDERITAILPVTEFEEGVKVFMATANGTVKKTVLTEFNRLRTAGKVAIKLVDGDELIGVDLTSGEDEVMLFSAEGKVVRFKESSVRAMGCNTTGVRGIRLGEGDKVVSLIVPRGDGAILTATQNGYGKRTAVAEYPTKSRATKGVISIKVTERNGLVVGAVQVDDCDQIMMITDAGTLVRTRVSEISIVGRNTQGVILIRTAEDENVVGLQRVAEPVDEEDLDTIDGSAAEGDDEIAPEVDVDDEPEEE
Structure (SMILES),MIC (S. pyogenes C203) [µg/mL],MIC (E. coli B90) [µg/mL],MIC (B. subtilis RB1) [µg/mL],MIC (E. coli MC4100) [µg/mL],MIC (S. aureus 29213) [µg/mL],IC50 (E. coli topoisomerase IV; [2]) [µM],IC50 (E. coli gyrase; [3]) [µM],IC50 (relaxed plasmid pBR322) [µM],IC50 at 3 h ([1]; Chinese hamster cells) [µM],MIC (E. coli To1C) [µg/mL],IC50 (E. coli topoisomerase IV) [µM],IC50 (E. coli gyrase) [µM],IC50 at 3 h [1] [µM]
"Nc1cc2c3c(cccc3c1)C(=O)N(O)C2=O [Example 8, 5-Amino-2-hydroxy-benzo[de]isoquinoline-1,3-dione]",> 64,4,8,8,32,65,7,> 100,> 500,,,,
"COc1cc2c3c(cccc3c1)C(=O)N(O)C2=O [Example 13, 2-Hydroxy-5-methoxy-benzo[de]isoquinoline-1,3-dione]",> 64,0.13,1,0.5,8,29,11,> 100,> 250,,,,
"Nc1cc2c3c(cccc3c1Cl)C(=O)N(O)C2=O [Example 28, 5-Amino-6-chloro-2-hydroxy-benzo[de]isoquinoline-1,3-dione]",> 64,1,4,16,4,7,20,> 100,> 250,1,,,
"O=C1c2cc([N+](=O)[O-])cc3cc([N+](=O)[O-])cc(c23)C(=O)N1O [Example 42, 2-Hydroxy-5,8-dinitro-benzo[de]isoquinoline-1,3-dione]",32,1,16,4,8,,,> 100,,,20,20,160
"CN1CCN(c2c(Br)cc3c4c(cccc24)C(=O)N(O)C3=O)CC1 [Example 50, 5-Bromo-2-hydroxy-6-(4-methylpiperazin-1-yl)-benzo[de]isoquinoline-1,3-dione]",8,2,4,32,8,97,31,,88,2,,,
